The source made the active and inactive calls. No cut-off for these calls is given here.

Tumour suppressor p53/oncoprotein Mdm2 (Homo sapiens), sequence (P04637 whole entry, looked up): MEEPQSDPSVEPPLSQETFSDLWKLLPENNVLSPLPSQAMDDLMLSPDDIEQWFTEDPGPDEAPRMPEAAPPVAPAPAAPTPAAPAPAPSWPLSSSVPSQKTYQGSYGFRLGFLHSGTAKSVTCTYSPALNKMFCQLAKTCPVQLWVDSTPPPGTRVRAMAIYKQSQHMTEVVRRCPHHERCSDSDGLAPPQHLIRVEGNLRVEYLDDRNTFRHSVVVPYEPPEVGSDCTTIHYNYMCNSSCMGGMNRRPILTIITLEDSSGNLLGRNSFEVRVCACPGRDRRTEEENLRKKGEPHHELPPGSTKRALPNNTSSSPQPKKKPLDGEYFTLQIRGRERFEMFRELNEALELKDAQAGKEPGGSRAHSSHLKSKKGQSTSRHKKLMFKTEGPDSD
Tumour suppressor p53/oncoprotein Mdm2 (Homo sapiens), sequence (Q00987 whole entry, looked up): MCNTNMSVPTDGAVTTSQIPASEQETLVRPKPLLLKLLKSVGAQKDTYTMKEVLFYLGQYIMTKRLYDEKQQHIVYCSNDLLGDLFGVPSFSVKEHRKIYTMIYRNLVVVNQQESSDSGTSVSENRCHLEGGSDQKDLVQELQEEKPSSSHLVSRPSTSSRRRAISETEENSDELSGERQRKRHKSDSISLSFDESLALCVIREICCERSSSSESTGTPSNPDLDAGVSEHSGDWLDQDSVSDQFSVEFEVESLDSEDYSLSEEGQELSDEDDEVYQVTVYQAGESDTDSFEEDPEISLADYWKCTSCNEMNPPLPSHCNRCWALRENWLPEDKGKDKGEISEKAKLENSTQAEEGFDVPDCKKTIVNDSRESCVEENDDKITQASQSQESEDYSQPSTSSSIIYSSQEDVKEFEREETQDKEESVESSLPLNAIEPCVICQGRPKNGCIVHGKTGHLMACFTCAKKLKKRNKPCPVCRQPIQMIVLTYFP

One experiment relates to SJSA-1. As to the kind of experiment: Increase of p53 protein level in SJSA cell line by Western blot analysis. The experiment is classed as functional, cell-based. To be noted: Homo sapiens. For orientation: Immunoblotting shows a protein as a band on a membrane.
As for `CCCN1C(=O)c2ccccc2C1(OCc1cc(OC)c(O)c(OC)c1)c1ccc(Cl)cc1` (stereo unspecified), the result was inactive.
Consider `O=C1c2ccccc2C(OCCCO)(c2ccc(Cl)cc2)N1Cc1ccccc1` (stereo unspecified), for which the outcome was inactive.

The next experiment concerns SJSA-1. As to the kind of experiment: Increase of p21 protein level in SJSA cell line by Western blot analysis. It is filed as functional, cell-based. Particulars: Homo sapiens.
For `CCCN1C(=O)c2ccccc2C1(OCc1cc(OC)c(O)c(OC)c1)c1ccc(Cl)cc1` (stereo unspecified), the Activity entry is “Dose-dependent effect”.
On the same count and under the same terms, then `O=C1c2ccccc2C(OCCCO)(c2ccc(Cl)cc2)N1Cc1ccccc1` (stereo unspecified), with “Dose-dependent effect”.

The next experiment concerns SJSA-1. As to the kind of experiment: Increase of MDM2 protein level in SJSA cell line by Western blot analysis. It is filed as functional, cell-based. To be noted: Homo sapiens.
With `CCCN1C(=O)c2ccccc2C1(OCc1cc(OC)c(O)c(OC)c1)c1ccc(Cl)cc1` (stereo unspecified), the Activity result was “Dose-dependent effect”.
For `O=C1c2ccccc2C(OCCCO)(c2ccc(Cl)cc2)N1Cc1ccccc1` (stereo unspecified), the Activity result is “Dose-dependent effect”.

Another experiment addresses Tumour suppressor p53/oncoprotein Mdm2 (Homo sapiens) (UniProt P04637+Q00987). As to the kind of experiment: Induction of p53 dependent transcription in SJSA cell line by reporter gene assay. The experiment is classed as functional, cell-based. Particulars: SJSA-1. For orientation: Reporter assays use an easily measured gene product as a stand-in for the process of interest.
Turning to `CCCN1C(=O)c2ccccc2C1(OCc1cc(OC)c(O)c(OC)c1)c1ccc(Cl)cc1` (stereo unspecified), the Activity result was “Dose-dependent effect”.
In the case of `O=C1c2ccccc2C(OCCCO)(c2ccc(Cl)cc2)N1Cc1ccccc1` (stereo unspecified), the Activity result is “Dose-dependent effect”.

The target of the next experiment is Tumour suppressor p53/oncoprotein Mdm2 (Homo sapiens, UniProt Q00987). As to the kind of experiment: Inhibition of p53-MDM2 interaction by ELISA. The experiment is classed as protein assay.
Tumour suppressor p53/oncoprotein Mdm2, sequence (P04637 whole entry): as the sequence (P04637 whole entry, looked up) above
Tumour suppressor p53/oncoprotein Mdm2, sequence (Q00987 whole entry): as the sequence (Q00987 whole entry, looked up) above
Details: not given
For orientation: In an ELISA, binding on a coated surface is turned into a signal by an enzyme label.
One may read the IC50 as the point on the concentration scale where inhibition reaches its midpoint. The molecule `O=C1c2ccccc2C(OCc2ccco2)(c2ccccc2)N1Cc1ccccc1` (stereo unspecified) had an IC50 greater than 500 µM.
The same measure, in the same setting: then `CCCNC1(c2ccccc2)c2ccccc2C(=O)N1Cc1ccccc1` (stereo unspecified), with 200 µM.
On to `CC(=O)NCCOC1(c2ccccc2)c2ccccc2C(=O)N1Cc1ccccc1` (stereo unspecified), for which the IC50 was determined as 281 µM.
As for `O=C(NCCOC1(c2ccccc2)c2ccccc2C(=O)N1Cc1ccccc1)c1ccc(O)cc1O` (stereo unspecified), half-maximal inhibition (IC50) required 96 µM. Compared with the last molecule, the IC50 is about 2.9-fold lower.
Consider `Cc1ccc([N+](=O)[O-])c(COC2(c3ccccc3)c3ccccc3C(=O)N2Cc2ccccc2)c1` (stereo unspecified), for which the IC50 is 232 µM.
Still for that read-out and setting: the figure for `O=C1c2ccccc2C(OC/C=C/c2ccccc2)(c2ccccc2)N1Cc1ccccc1` (stereo unspecified) is 334 µM; for `O=C1c2ccccc2C(OCc2ccc(O)cc2)(c2ccccc2)N1Cc1ccccc1` (stereo unspecified) it is 79 µM.
`CCOC(=O)CCC(NC1(c2ccccc2)c2ccccc2C(=O)N1Cc1ccccc1)C(=O)OCC` (stereo unspecified): the IC50 is greater than 500 µM.
Still for that read-out and setting: then `O=C1c2ccccc2C(OCCS(=O)(=O)O)(c2ccccc2)N1Cc1ccccc1` (stereo unspecified), with 345 µM; and `C[Si](C)(C)CCOCOc1ccc(C2(OCCCO)c3ccccc3C(=O)N2Cc2ccccc2)cc1` (stereo unspecified), with 476 µM; and `COC(=O)[C@@H](C)COC1(c2ccccc2)c2ccccc2C(=O)N1Cc1ccccc1` (stereo partly specified), with 330 µM.
For the molecule `O=Cc1ccc(COC2(c3ccccc3)c3ccccc3C(=O)N2Cc2ccccc2)o1` (stereo unspecified), the IC50 came out at 97 µM. Compared with the last molecule, the IC50 is about 3.4-fold lower.
In turn, `CCCOC1(c2ccccc2)c2ccccc2C(=O)N1[C@@H](CCCCN)C(=O)OC` (stereo partly specified) registered an IC50 of 79 µM.
On to `CCCOC1(c2ccccc2)c2ccccc2C(=O)N1[C@H](C(=O)OC)c1ccc(O)cc1` (stereo partly specified), for which the IC50 is 90 µM. The IC50 values of the last two molecules are within 1.5-fold of each other.
In turn, `COC(=O)C(Cc1ccc(O)cc1)N1C(=O)c2ccccc2C1(OCCn1c([N+](=O)[O-])cnc1C)c1ccccc1` (stereo unspecified) showed an IC50 of 275 µM.
`CCCN1C(=O)c2ccccc2C1(OCCc1ccc(O)cc1)c1ccc(C(C)(C)C)cc1` (stereo unspecified): the IC50 was 69.7 µM.
`O=C1c2ccccc2C(OCCN2CCOCC2)(c2ccccc2)N1Cc1ccccc1` (stereo unspecified) returned an IC50 greater than 500 µM.
`CCCOC1(c2ccccc2)c2ccccc2C(=O)N1Cc1ccccc1` (stereo unspecified) had an IC50 greater than 200 µM.
On to `CCCN1C(=O)c2ccccc2C1(OCCN1CCNC1=O)c1ccc(C(C)(C)C)cc1` (stereo unspecified), for which the IC50 stood at 74.3 µM. This lies in the double-digit micromolar range.
For the molecule `CCCN1C(=O)c2ccccc2C1(OCc1cc2c(cc1[N+](=O)[O-])OCO2)c1ccc(C(C)(C)C)cc1` (stereo unspecified), it took 70.2 µM to reach half-maximal inhibition (IC50).
The molecule `COC(=O)C(Cc1ccc(O)cc1)N1C(=O)c2ccccc2C1(OCCN(CCC#N)c1ccccc1)c1ccccc1` (stereo unspecified) came in with an IC50 of 88 µM.
On to `CCCN1C(=O)c2ccccc2C1(OCCNC(=O)c1ccccc1O)c1ccc(C(C)(C)C)cc1` (stereo unspecified), for which half-maximal inhibition (IC50) required 70.1 µM. This IC50 and that of the molecule before are within 1.5-fold of each other.
Molecule `CCCOC1(c2ccccc2)c2ccccc2C(=O)N1CCC` (stereo unspecified) registered an IC50 greater than 200 µM.
Same read-out and setting: then `COC(=O)C(Cc1ccc(O)cc1)N1C(=O)c2ccccc2C1(OCCOC(C)=O)c1ccccc1` (stereo unspecified), with 380 µM; and `O=C1c2ccccc2C(OCCc2ccccc2)(c2ccccc2)N1Cc1ccccc1` (stereo unspecified), with greater than 500 µM; and `O=C1c2ccccc2C(OCc2ccc(Cl)c([N+](=O)[O-])c2)(c2ccccc2)N1Cc1ccccc1` (stereo unspecified), with 206 µM.
In turn, `CCCCc1ncc(COC2(c3ccccc3)c3ccccc3C(=O)N2Cc2ccccc2)[nH]1` (stereo unspecified) gave an IC50 of 78 µM.
Still for that read-out and setting: the figure for `O=C1c2ccccc2C(NCCO)(c2ccccc2)N1Cc1ccccc1` (stereo unspecified) is greater than 500 µM.
On to `O=C1c2ccccc2C(OCc2cccc(O)c2)(c2ccccc2)N1Cc1ccccc1` (stereo unspecified), for which the IC50 was determined as 58 µM.
As to `CCCOC1(c2ccccc2)c2ccccc2C(=O)N1CCCC(OC)OC` (stereo unspecified), inhibition was half-maximal at 70 µM (IC50).
For the molecule `CCCN1C(=O)c2ccccc2C1(OCc1[nH]cnc1C)c1ccc(C(C)(C)C)cc1` (stereo unspecified), the IC50 was 64.3 µM.
Molecule `C=C(C)C(=O)OCCN1C(=O)c2ccccc2C1(N[C@@H](CO)[C@@H](O)c1ccccc1)c1ccccc1` (stereo partly specified) returned an IC50 of 103 µM.
As to `COc1ccc(CCOC2(c3ccccc3)c3ccccc3C(=O)N2Cc2ccccc2)cc1OC` (stereo unspecified), it took 311 µM to reach half-maximal inhibition (IC50). Against the preceding molecule, the IC50 is about 3-fold higher.
The molecule `COc1ccc([C@@H](O)COC2(c3ccccc3)c3ccccc3C(=O)N2CCCO)cc1` (stereo partly specified) had an IC50 of 326 µM.
On the same count and under the same terms, then `CC(NC1(c2ccccc2)c2ccccc2C(=O)N1Cc1ccccc1)C(O)c1ccc(O)cc1` (stereo unspecified), with 185 µM.
Take `CN(CCOC1(c2ccccc2)c2ccccc2C(=O)N1Cc1ccccc1)c1ccc(C=O)cc1` (stereo unspecified): it took 191 µM to reach half-maximal inhibition (IC50).
Regarding `NC(=O)COC1(c2ccccc2)c2ccccc2C(=O)N1Cc1ccccc1` (stereo unspecified), the IC50 is greater than 500 µM.
Take `O=C1c2ccccc2C(OCc2cccc([N+](=O)[O-])c2)(c2ccccc2)N1Cc1ccccc1` (stereo unspecified): the half-inhibitory concentration (IC50) came to 284 µM.
`C=C(C)C(=O)OCCNC1(c2ccccc2)c2ccccc2C(=O)N1Cc1ccccc1` (stereo unspecified) displayed an IC50 of 353 µM. The IC50 values of the last two molecules are within 1.5-fold of each other.
Molecule `CCCN1C(=O)c2ccccc2C1(OCCS(C)(=O)=O)c1ccc(C(C)(C)C)cc1` (stereo unspecified) registered an IC50 of 290 µM.
Still for that read-out and setting: the figure for `CCCOC1(c2ccccc2)c2ccccc2C(=O)N1CCO` (stereo unspecified) is greater than 500 µM.
In turn, `COC(=O)COC1(c2ccccc2)c2ccccc2C(=O)N1Cc1ccccc1` (stereo unspecified) gave an IC50 greater than 500 µM.
As for `O=C1c2ccccc2C(NC(CO)C(O)c2ccccc2)(c2ccccc2)N1Cc1ccccc1` (stereo unspecified), the IC50 turned out to be 85 µM.
With `CC(=O)NCCNC1(c2ccccc2)c2ccccc2C(=O)N1Cc1ccccc1` (stereo unspecified), the IC50 was greater than 500 µM.
On the same count and under the same terms, then `O=C1c2ccccc2C(NCC(O)c2ccc(O)cc2)(c2ccccc2)N1Cc1ccccc1` (stereo unspecified), with 227 µM.
For `C=CCNC(=S)NCCOC1(c2ccccc2)c2ccccc2C(=O)N1Cc1ccccc1` (stereo unspecified), 408 µM corresponded to half-maximal inhibition (IC50). Against the preceding molecule, the IC50 is about 1.8-fold higher.
For `CCCOC1(c2ccccc2)c2ccccc2C(=O)N1Cc1ccc(OC)cc1` (stereo unspecified), the IC50 was 413 µM.
The same measure, in the same setting: then `Cc1cccc(N(CCC#N)CCOC2(c3ccccc3)c3ccccc3C(=O)N2Cc2ccccc2)c1` (stereo unspecified), with 243 µM; and `O=C1c2ccccc2C(OCCNC(=O)C(F)(F)F)(c2ccccc2)N1Cc1ccccc1` (stereo unspecified), with 409 µM; and `O=C1c2ccccc2C(=O)N1CCCOC1(c2ccccc2)c2ccccc2C(=O)N1Cc1ccccc1` (stereo unspecified), with 189 µM.
As to `O=C1c2ccccc2C(=O)N1CCOC1(c2ccccc2)c2ccccc2C(=O)N1Cc1ccccc1` (stereo unspecified), the midpoint of inhibition, the IC50, lay at 152 µM.
In turn, `O=C1c2ccccc2C(OCCOc2ccccc2O)(c2ccccc2)N1Cc1ccccc1` (stereo unspecified) had an IC50 of 221 µM.
`O=C1c2ccccc2C(N[C@@H](CO)[C@@H](O)c2ccccc2)(c2ccccc2)N1Cc1ccccc1` (stereo partly specified): the IC50 is 85 µM.
In turn, `COc1ccc([C@@H](O)COC2(c3ccccc3)c3ccccc3C(=O)N2Cc2ccco2)cc1` (stereo partly specified) gave an IC50 of 181 µM.
For `COC(=O)CCNC1(c2ccccc2)c2ccccc2C(=O)N1Cc1ccccc1` (stereo unspecified), the IC50 is greater than 500 µM.
The same measure, in the same setting: the figure for `N#CCCNC1(c2ccccc2)c2ccccc2C(=O)N1Cc1ccccc1` (stereo unspecified) is 190 µM.
Same read-out and setting: the figure for `COCCOC1(c2ccccc2)c2ccccc2C(=O)N1Cc1ccccc1` (stereo unspecified) is 490 µM.
Molecule `O=C(NCCOC1(c2ccccc2)c2ccccc2C(=O)N1Cc1ccccc1)c1ccncc1` (stereo unspecified) displayed an IC50 of 278 µM.
`O=C1CCC(=O)N1CCOC1(c2ccccc2)c2ccccc2C(=O)N1Cc1ccccc1` (stereo unspecified) yielded an IC50 of 284 µM.
As to `C=CC(=O)OCCOC1(c2ccccc2)c2ccccc2C(=O)N1Cc1ccccc1` (stereo unspecified), 439 µM corresponded to half-maximal inhibition (IC50). Compared with the last molecule, the IC50 is about 1.5-fold higher.
In the case of `O=C1CCCN1CCOC1(c2ccccc2)c2ccccc2C(=O)N1Cc1ccccc1` (stereo unspecified), the IC50 stood at 393 µM. This IC50 and that of the molecule before are within 1.5-fold of each other.
The molecule `O=C1c2ccccc2C(NCC(O)c2cccc(O)c2)(c2ccccc2)N1Cc1ccccc1` (stereo unspecified) returned an IC50 of 84 µM.
`CCCN1C(=O)c2ccccc2C1(OCc1cc([N+](=O)[O-])c(C)c([N+](=O)[O-])c1)c1ccc(OCOCC[Si](C)(C)C)cc1` (stereo unspecified) yielded an IC50 of 103 µM. The IC50 values of the last two molecules are within 1.5-fold of each other.
